# Reference: patent publication US20160281077A1, “MEDIUM AND METHOD FOR CULTURING EUGLENA AND METHOD FOR REDUCING PHOTOINHIBITION IN EUGLENA” (Euglena Co., Ltd., priority 2015, published 2016)
# Tests used:
# Euglena gracilis Z [1] = assay: Study 2 and reference study: proliferation (cell density) of Euglena under strong or weak light; type: cell-based; settings: 0.5 mM ascorbic acid in place of PMF
# Method: The CM medium having a PMF concentration of 0.5 g/L was placed into the same three-electrode electrochemical cell as the Study 1.
# To the medium, the precultured Euglena was added at an initial density (OD800) of 0.05 and electrochemically cultured under strong light having an intensity of 5000 lux, which is about one tenth of the maximum intensity of sunlight. After 0, 24, 48, 76, 96, and 148 hours from the start of the culture, the cell density was determined (Example 2). The voltage applied was +0.6 V vs. SHE.
# A similar study was performed on Euglena non-electrochemically cultured in the medium that included no PMF (Comparative Example 3).
# A similar study was also performed on Euglena electrochemically cultured in the medium that included PMF (Comparative Example 4) and Euglena electrochemically cultured in the medium that included no PMF (Comparative Example 5) under weak light having an intensity of 1000 lux, which is about one fiftieth of the maximum intensity of sunlight.
# In the study, proliferation of Euglena that were cultured in the medium supplemented with or without 0.5 mM of ascorbic acid in place of PMF used in the Study 2 under strong light or under weak light was compared. The study was performed in the same manner as in the Study 2 except that 0.5 mM of ascorbic acid was added in place of PMF.
# Euglena gracilis Z [2] = assay: Study 3: photocurrent after addition of Euglena and of electron transport inhibitor DBMIB; type: cell-based; settings: DBMIB 100 μM added after about 37 minutes to PMF 3 g/L medium with Euglena; current before about 8 μA
# Method: To determine whether the effect of the medium supplemented with PMF in facilitating the proliferation of Euglena in electrochemical culture as shown by the Studies 1 and 2 is attributed to extracellular transfer of electrons from Euglena, DBMIB (2,5-dibromo-3-methyl-6-isopropyl-p-benzoquinone), which is an electron transport inhibitor, was added to the culture system that included PMF, and a change in photocurrent was measured.
# DBMIB binds to the plastoquinone-binding site of the cytochrome b6f and prevents the oxidation of reduced plastoquinone thereby inhibiting electron transport. DBMIB inhibits the transfer of electrons from plastoquinone to the photosystem I and thus is used to measure the activity of the photosystem II.
# In the Study 3, the CM medium having a PMF concentration of 3 g/L was placed into the same three-electrode electrochemical cell as the Study 1. Then, the electrochemical cell was placed into a shielded enclosure to measure the photocurrent.
# After about 21 minutes from the start of the measurement, the precultured Euglena was added at an initial density (OD800) of 0.5. After about 37 minutes from the start of the measurement, DBMIB was added at a concentration of 100 μM to the medium.
Compound,facilitating the proliferation of Euglena under strong light (Euglena gracilis Z [1]; strong light (5000 lux)),facilitating the proliferation of Euglena under weak light (Euglena gracilis Z [1]; weak light (1000 lux)),current after addition of DBMIB (Euglena gracilis Z [2])
O=C1O[C@H]([C@@H](O)CO)C(O)=C1O [ascorbic acid],effective in facilitating the proliferation of Euglena,not effective in facilitating the proliferation,–
"CC1=C(Br)C(=O)C(C(C)C)=C(Br)C1=O [DBMIB, 2,5-dibromo-3-methyl-6-isopropyl-p-benzoquinone]",–,–,about 4 μA
